Results as given in patent US20140256756A1, “PIPERIDINYL-SUBSTITUTED LACTAMS AS GPR119 MODULATORS” (Array BioPharma Inc., priority 2011, published 2014).
Counter-ions that a name gives are not always drawn.

Tested on: modified version of the GPR119 receptor (94% identity to human receptor)
Assay: cAMP production assay (LANCE cAMP kit, TR-FRET) in HEK-293 cells
Type: cell-based
Settings: for cAMP production in HEK-293 cells: HEK-293 cells stably expressing modified GPR119, test compounds 0.2 nM to 10 μM, one-hour incubation; for Fold over baseline: increase in cAMP relative to basal levels, agonist activity if 1.5-fold or greater
Experimental: The assay utilized HEK-293 cells that stably express a modified version of the GPR119 receptor (94% identity to human receptor), under the control of a CMV promoter containing a tet-on element for tetracycline-inducible expression. GPR119 agonist-induced cyclic AMP (cAMP) production was measured in this cell line using the LANCE cAMP kit (Perkin Elmer, Waltham, Mass.). To generate a working stock of cells for the assay, cells were treated overnight with 1 μg/mL doxycycline at 37° C. in the presence of 5% CO2 to induce receptor expression. Cells were then harvested by enzymatic dissociation with 0.05% trypsin, resuspended in freezing medium (DMEM growth medium with 10% each of fetal bovine serum and DMSO), aliquoted and frozen at −80° C. On the day of the assay, frozen cells were thawed, washed 1× in PBS and resuspended in Hank's buffered salt solution (HBSS) containing 5 mM HEPES, 0.1% BSA and Alexa Fluor 647-conjugated anti-cAMP antibody (diluted 1:100). The cell suspension was then transferred to a Proxiplate Plus white 384-well assay plate (Perkin-Elmer) at 2000 cells/well. Test compounds at final concentrations ranging from 0.2 nM to 10 μM were added to the assay plate, followed by a one-hour incubation at ambient temperature (volume=10 μL/well). DMSO concentration was held constant at 0.5%. After incubation with test compounds, 10 μL, of a detergent buffer containing a biotinylated cAMP/Europium-conjugated streptavidin complex (Europium-labeled cAMP tracer) were added to each well on the assay plate, followed by a 2-hour incubation at ambient temperature. During this incubation cAMP released from lysed cells competes with the Europium-labeled cAMP tracer for binding to the Alexa Fluor 647-conjugated antibody. […] Cellular cAMP levels were then determined by interpolation of raw signal data using a cAMP standard curve. Compounds were determined to have agonist activity if they stimulated a 1.5-fold or greater increase in cAMP relative to basal levels.

Structure (SMILES) | cAMP production in HEK-293 cells [nmol] | Fold over baseline
CC(C)c1nsc(N2CCC(N3CC[C@H](Nc4ccc(S(C)(=O)=O)cc4F)C3=O)CC2)n1 [Example 1, (S)-3-(2-fluoro-4-(methylsulfonyl)phenylamino)-1-(1-(3-isopropyl-1,2,4-thiadiazol-5-yl)piperidin-4-yl)pyrrolidin-2-one] | 21.6 | 3.3
CC(C)c1nsc(N2CCC(N3CC[C@@H](Nc4ccc(S(C)(=O)=O)cc4F)C3=O)CC2)n1 [Example 2, (R)-3-(2-fluoro-4-(methylsulfonyl)phenylamino)-1-(1-(3-isopropyl-1,2,4-thiadiazol-5-yl)piperidin-4-yl)pyrrolidin-2-one] | 21.9 | 3.1
CCS(=O)(=O)c1ccc(N[C@H]2CCN(C3CCN(c4nc(C(C)C)ns4)CC3)C2=O)c(F)c1 [Example 3, (S)-3-(4-(ethylsulfonyl)-2-fluorophenylamino)-1-(1-(3-isopropyl-1,2,4-thiadiazol-5-yl)piperidin-4-yl)pyrrolidin-2-one] | 25.3 | 5.4
CC(C)c1nsc(N2CCC(N3CC[C@H](Nc4ccc(S(=O)(=O)C5CC5)cc4F)C3=O)CC2)n1 [Example 4, (S)-3-(4-(cyclopropylsulfonyl)-2-fluorophenylamino)-1-(1-(3-isopropyl-1,2,4-thiadiazol-5-yl)piperidin-4-yl)pyrrolidin-2-one] | 24.2 | 4.3
CC(C)c1nsc(N2CCC(N3CC[C@H](Nc4cc(F)c(S(C)(=O)=O)cc4F)C3=O)CC2)n1 [Example 5, (S)-3-(2,5-difluoro-4-(methylsulfonyl)phenylamino)-1-(1-(3-isopropyl-1,2,4-thiadiazol-5-yl)piperidin-4-yl)pyrrolidin-2-one] | 19.2 | 2.7
CC(C)c1nsc(N2CCC(N3CC[C@H](Nc4ccc(S(=O)(=O)CC5CC5)cc4F)C3=O)CC2)n1 [Example 6, (S)-3-(4-(cyclopropylmethylsulfonyl)-2-fluorophenylamino)-1-(1-(3-isopropyl-1,2,4-thiadiazol-5-yl)piperidin-4-yl)pyrrolidin-2-one] | 23.2 | 3.2
CC(C)c1nsc(N2CCC(N3CC[C@@H](Nc4ccc(S(=O)(=O)C5CC5)cc4F)C3=O)CC2)n1 [Example 7, (R)-3-(4-(cyclopropylsulfonyl)-2-fluorophenylamino)-1-(1-(3-isopropyl-1,2,4-thiadiazol-5-yl)piperidin-4-yl)pyrrolidin-2-one] | 23.8 | 3.4
CC(C)c1nsc(N2CCC(N3CC[C@H](Nc4ccc(S(=O)(=O)C(C)C)cc4F)C3=O)CC2)n1 [Example 8, (S)-3-(2-fluoro-4-(isopropylsulfonyl)phenylamino)-1-(1-(3-isopropyl-1,2,4-thiadiazol-5-yl)piperidin-4-yl)pyrrolidin-2-one] | 37.6 | 4.7
CC(C)c1nsc(N2CCC(N3CC[C@H](Nc4cc(Cl)c(S(C)(=O)=O)cc4F)C3=O)CC2)n1 [Example 9, (S)-3-(5-chloro-2-fluoro-4-(methylsulfonyl)phenylamino)-1-(1-(3-isopropyl-1,2,4-thiadiazol-5-yl)piperidin-4-yl)pyrrolidin-2-one] | 16.0 | 4.0
CC(C)c1nsc(N2CCC(N3CC[C@H](Nc4ccc(S(C)(=O)=O)cc4C#N)C3=O)CC2)n1 [Example 10, (S)-2-(1-(1-(3-isopropyl-1,2,4-thiadiazol-5-yl)piperidin-4-yl)-2-oxopyrrolidin-3-ylamino)-5-(methylsulfonyl)benzonitrile] | 11.3 | 2.3
CC(C)c1nsc(N2CCC(N3CC[C@H](Nc4ccc(S(C)(=O)=O)c(Cl)c4)C3=O)CC2)n1 [Example 11, (S)-3-(3-chloro-4-(methylsulfonyl)phenylamino)-1-(1-(3-isopropyl-1,2,4-thiadiazol-5-yl)piperidin-4-yl)pyrrolidin-2-one] | 10.8 | 3.0
CC(C)c1nsc(N2CCC(N3CC[C@H](Nc4ccc(S(C)(=O)=O)cc4Cl)C3=O)CC2)n1 [Example 12, (S)-3-(2-chloro-4-(methylsulfonyl)phenylamino)-1-(1-(3-isopropyl-1,2,4-thiadiazol-5-yl)piperidin-4-yl)pyrrolidin-2-one] | 17.5 | 3.9
CC(C)c1nsc(N2CCC(N3CC[C@@H](Nc4ccc(S(=O)(=O)N(C)C)cc4F)C3=O)CC2)n1 [Example 13, (R)-3-fluoro-4-(1-(1-(3-isopropyl-1,2,4-thiadiazol-5-yl)piperidin-4-yl)-2-oxopyrrolidin-3-ylamino)-N,N-dimethylbenzenesulfonamide] | 25.2 | 3.4
CC(C)c1nsc(N2CCC(N3CC[C@H](Nc4ncc(S(C)(=O)=O)cn4)C3=O)CC2)n1 [Example 14, (S)-1-(1-(3-isopropyl-1,2,4-thiadiazol-5-yl)piperidin-4-yl)-3-(5-(methylsulfonyl)pyrimidin-2-ylamino)pyrrolidin-2-one] | 17.5 | 2.8
CC(C)c1nsc(N2CCC(N3CC[C@H](Nc4ccc(Br)cn4)C3=O)CC2)n1 [Example 15, (S)-3-(5-Bromopyridin-2-ylamino)-1-(1-(3-isopropyl-1,2,4-thiadiazol-5-yl)piperidin-4-yl)pyrrolidin-2-one] | 11.4 | 2.7
CC(C)c1nsc(N2CCC(N3CC[C@H](Nc4ccc(S(C)(=O)=O)cn4)C3=O)CC2)n1 [Example 16, (S)-1-(1-(3-isopropyl-1,2,4-thiadiazol-5-yl)piperidin-4-yl)-3-(5-(methylsulfonyl)pyridin-2-ylamino)pyrrolidin-2-one] | 27.2 | 3.7
Cc1cc(S(C)(=O)=O)cnc1N[C@H]1CCN(C2CCN(c3nc(C(C)C)ns3)CC2)C1=O [Example 17, (S)-1-(1-(3-isopropyl-1,2,4-thiadiazol-5-yl)piperidin-4-yl)-3-(3-methyl-5-(methylsulfonyl)pyridin-2-ylamino)pyrrolidin-2-one] | 11.2 | 2.1
Cc1cc(N[C@H]2CCN(C3CCN(c4nc(C(C)C)ns4)CC3)C2=O)c(F)cc1S(C)(=O)=O [Example 18, (S)-3-(2-fluoro-5-methyl-4-(methylsulfonyl)phenylamino)-1-(1-(3-isopropyl-1,2,4-thiadiazol-5-yl)piperidin-4-yl)pyrrolidin-2-one] | 20.1 | 3.4
CCS(=O)(=O)c1ccc(NC2CCN(C3CCN(c4nc(C(C)C)ns4)CC3)C2=O)cc1C (stereo not shown) [Example 19, 3-(4-(Ethylsulfonyl)-3-methylphenylamino)-1-(1-(3-isopropyl-1,2,4-thiadiazol-5-yl)piperidin-4-yl)pyrrolidin-2-one] | 16.4 | 2.4
CCS(=O)(=O)c1ccc(NC2CCN(C3CCN(c4nc(C(C)C)ns4)CC3)C2=O)cc1F (stereo not shown) [Example 20, 3-(4-(ethylsulfonyl)-3-fluorophenylamino)-1-(1-(3-isopropyl-1,2,4-thiadiazol-5-yl)piperidin-4-yl)pyrrolidin-2-one] | 22.6 | 3.5
Cc1cc(S(C)(=O)=O)ccc1NC1CCN(C2CCN(c3nc(C(C)C)ns3)CC2)C1=O (stereo not shown) [Example 21, 1-(1-(3-isopropyl-1,2,4-thiadiazol-5-yl)piperidin-4-yl)-3-(2-methyl-4-(methyl-sulfonyl)phenylamino) pyrrolidin-2-one] | 13.0 | 3.3
CC(C)Cc1nsc(N2CCC(N3CC[C@H](Nc4ccc(S(C)(=O)=O)cc4F)C3=O)CC2)n1 [Example 22, (S)-3-(2-fluoro-4-(methylsulfonyl)phenylamino)-1-(1-(3-isobutyl-1,2,4-thiadiazol-5-yl)piperidin-4-yl)pyrrolidin-2-one trifluoroacetate] | 22.1 | 7.6
CS(=O)(=O)c1ccc(N[C@H]2CCN(C3CCN(c4nc(C5CC5)ns4)CC3)C2=O)c(F)c1 [Example 23, (S)-1-(1-(3-cyclopropyl-1,2,4-thiadiazol-5-yl)piperidin-4-yl)-3-(2-fluoro-4-(methyl-sulfonyl)phenylamino) pyrrolidin-2-one] | 11.9 | 2.9
